Measurements published in patent publication US12629446B2, “Vascular embolic system” (3-D Matrix, Ltd., priority 2012, dated 2026).

Parameters: species or system Yorkshire cross swine
Details: in vivo
Procedure: PuraMatrix™, a peptide solution comprising Ac-RADARADARADARADA-NH2 (Ac-Arg-Ala-Asp-Ala-Arg-Ala-Asp-Ala-Arg-Ala-Asp-Ala-Arg-Ala-Asp-Ala-NH2) (SEQ ID NO: 58) in water was used as an embolic agent in a porcine model through angiography, gross necropsy assessment, and histopathology assessment. One female Yorkshire cross swine was tested. The weight of the swine at the time of testing was 46.5 kg. Feed and water were provided per standard operating procedures. There were no contaminants in the food or water that were expected to interfere with the conduct or results of the study. The swine was acquired from a test facility approved animal supplier. The Swine participated in an incoming physical exam, and after a period of acclimation was again examined. The swine was fasted a minimum of 12 hours prior to the procedures. The animals were sedated and anesthetized by an intramuscular or subcutaneous injection of Telazol (2-10 mg/kg) and Xylazine (0.5=5.0 mg/kg). Propofol (to effect) was given to aid in sedation. An endotracheal tube was used to ensure proper ventilation and the animals were maintained under general anesthesia with inhalant isofluorante (0.1 to 5.0%). Heparin (50-300 units/kg, IV) was administered throughout the procedure.
On the day of testing, the swine was 2 months, 25 days old. The swine was sedated and prepared for surgery. […]

## Ac-RADARADARADARADA-NH2 [PuraMatrix™]
  adverse events throughout the testing: no adverse events
